Measured values published in patent US20250171431A1, “HETEROCYCLIC INHIBITORS OF IGF-1R FOR TREATMENT OF DISEASE” (HORIZON THERAPEUTICS IRELAND DAC, priority 2023, published 2025).

Molecular target: IGF-1R (Homo sapiens (Human), UniProt P08069)
Experiment: Example B-1: IGF-1R Assay (PC3 cells, IGF1 stimulation, AlphaLISA)
Type: cell-based
Conditions: 200 ng/mL IGF1 stimulation, read-out: Biological Activity against IGF-1R IC50
Summary of the method: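 Readout is AlphaLISA signal from lysed PC3 cells, expressed as % inhibition versus vehicle and EC80 controls and banded by IC50. Before lysis, the cells were starved of serum for 2 h, exposed to 3× serially diluted compound for 2 h, and stimulated for 30 min with 200 ng/mL IGF1 (final).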

Sequence of IGF-1R (P08069 31-1367): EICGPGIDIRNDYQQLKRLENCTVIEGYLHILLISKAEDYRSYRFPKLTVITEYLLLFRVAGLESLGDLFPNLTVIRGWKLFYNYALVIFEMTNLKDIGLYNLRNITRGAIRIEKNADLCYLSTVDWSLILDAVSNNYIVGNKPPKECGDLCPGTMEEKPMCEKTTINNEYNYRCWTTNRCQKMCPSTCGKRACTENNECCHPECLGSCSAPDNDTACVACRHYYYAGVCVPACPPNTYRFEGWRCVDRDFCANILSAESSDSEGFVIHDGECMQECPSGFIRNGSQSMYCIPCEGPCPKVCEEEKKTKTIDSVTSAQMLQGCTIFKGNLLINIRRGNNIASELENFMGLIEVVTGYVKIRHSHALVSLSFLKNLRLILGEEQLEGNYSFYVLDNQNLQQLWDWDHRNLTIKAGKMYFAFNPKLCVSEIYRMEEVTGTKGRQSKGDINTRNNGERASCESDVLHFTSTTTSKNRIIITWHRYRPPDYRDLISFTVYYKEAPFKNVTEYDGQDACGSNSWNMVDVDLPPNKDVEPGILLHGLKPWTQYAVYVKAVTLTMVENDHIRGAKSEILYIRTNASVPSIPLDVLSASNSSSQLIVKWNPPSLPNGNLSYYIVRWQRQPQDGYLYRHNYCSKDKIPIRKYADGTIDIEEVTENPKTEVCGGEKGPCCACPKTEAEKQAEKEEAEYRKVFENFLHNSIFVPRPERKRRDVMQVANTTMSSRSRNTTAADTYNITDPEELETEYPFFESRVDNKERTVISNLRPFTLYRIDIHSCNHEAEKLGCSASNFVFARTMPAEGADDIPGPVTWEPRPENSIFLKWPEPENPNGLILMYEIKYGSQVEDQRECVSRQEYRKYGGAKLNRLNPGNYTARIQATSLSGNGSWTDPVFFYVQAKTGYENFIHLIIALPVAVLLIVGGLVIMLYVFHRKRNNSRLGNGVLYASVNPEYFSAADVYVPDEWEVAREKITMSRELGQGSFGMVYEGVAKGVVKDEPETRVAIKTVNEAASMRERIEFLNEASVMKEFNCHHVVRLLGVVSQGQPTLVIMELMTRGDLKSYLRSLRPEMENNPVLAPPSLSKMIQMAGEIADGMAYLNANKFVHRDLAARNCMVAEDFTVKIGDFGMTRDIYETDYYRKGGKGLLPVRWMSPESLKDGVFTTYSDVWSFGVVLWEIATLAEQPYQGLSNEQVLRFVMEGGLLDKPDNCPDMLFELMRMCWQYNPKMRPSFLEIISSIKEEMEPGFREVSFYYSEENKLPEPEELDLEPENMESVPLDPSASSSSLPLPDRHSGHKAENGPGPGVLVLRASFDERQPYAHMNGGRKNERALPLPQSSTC

Compound | IC50
CS(=O)(=O)c1ccc2ncc(Nc3ccnc(Nc4ccc(OCCCN5CCOCC5)cc4)n3)cc2c1 [Compound 411, 4-(6-mesyl-3-quinolylamino)-2-[p-(3-morpholinopropoxy)phenylamino]pyrimidine] | 2000 to 10000 nM
FC(F)(F)c1cccc2cc(Nc3ccnc(Nc4ccc(OCCCN5CCOCC5)cc4)n3)cnc12 [Compound 415, 2-[p-(3-morpholinopropoxy)phenylamino]-4-[8-(trifluoromethyl)-3-quinolylamino]pyrimidine] | 2000 to 10000 nM
COc1cccc2cc(Nc3ccnc(Nc4ccc(OCCCN5CCOCC5)cc4)n3)cnc12 [Compound 417, 4-(8-methoxy-3-quinolylamino)-2-[p-(3-morpholinopropoxy)phenylamino]pyrimidine] | 500 to 2000 nM
COc1cc(Nc2nccc(Nc3cc4ccccc4nc3C)n2)ccc1OCCCN1CCCCC1 [Compound 424, 2-[3-methoxy-4-(3-piperidinopropoxy)phenylamino]-4-(2-methyl-3-quinolylamino)pyrimidine] | 500 to 2000 nM
COc1cc(Nc2nccc(Nc3ccc4cccnc4c3)n2)ccc1OCCCN1CCCCC1 [Compound 433, 2-[3-methoxy-4-(3-piperidinopropoxy)phenylamino]-4-(7-quinolylamino) pyrimidine] | 500 to 2000 nM
COc1cc(Nc2nccc(Nc3cc(F)c4ncccc4c3)n2)ccc1OCCCN1CCCCC1 [Compound 447, 4-(8-fluoro-6-quinolylamino)-2-[3-methoxy-4-(3-piperidinopropoxy)phenylamino] pyrimidine] | ≤ 500 nM
COc1cc(Nc2nccc(Nc3ccc4c(c3)CCC(=O)N4)n2)ccc1OCCCN1CCCCC1 [Compound 448, 6-{2-[3-methoxy-4-(3-piperidinopropoxy)phenylamino]-4-pyrimidinylamino}-3,4-dihydro-2(1H)-quinolinone] | ≤ 500 nM
COc1cc(Nc2nccc(Nc3ccc4c(c3)CCCC4=O)n2)ccc1OCCCN1CCCCC1 [Compound 449, 6-{2-[3-methoxy-4-(3-piperidinopropoxy)phenylamino]-4-pyrimidinylamino}-3,4-dihydro-1(2H)-naphthalenone] | ≤ 500 nM
COc1cc(Nc2nccc(Nc3ccc4c(c3)CCN(C)C4)n2)ccc1OCCCN1CCCCC1 [Compound 450, 2-[3-methoxy-4-(3-piperidinopropoxy)phenylamino]-4-(2-methyl-1,2,3,4-tetrahydro-6-isoquinolylamino) pyrimidine] | 500 to 2000 nM
COc1cc(Nc2nccc(Nc3ccc4c(c3)CCCN4C)n2)ccc1OCCCN1CCCCC1 [Compound 451, 2-[3-methoxy-4-(3-piperidinopropoxy)phenylamino]-4-(1-methyl-1,2,3,4-tetrahydro-6-quinolylamino) pyrimidine] | ≤ 500 nM
COc1ccc2ccc(Nc3ccnc(Nc4ccc(OCCCN5CCCCC5)c(OC)c4)n3)cc2c1 [Compound 452, 4-(7-methoxy-2-naphthylamino)-2-[3-methoxy-4-(3-piperidinopropoxy)phenylamino] pyrimidine] | ≤ 500 nM
COc1cc(Nc2nccc(Nc3ccc4c(OC)cccc4c3)n2)ccc1OCCCN1CCCCC1 [Compound 453, 4-(5-methoxy-2-naphthylamino)-2-[3-methoxy-4-(3-piperidinopropoxy)phenylamino] pyrimidine] | ≤ 500 nM
COc1cc(Nc2nccc(Nc3cc(C)c4ccccc4c3)n2)ccc1OCCCN1CCCCC1 [Compound 454, 2-[3-methoxy-4-(3-piperidinopropoxy)phenylamino]-4-(4-methyl-2-naphthylamino) pyrimidine] | ≤ 500 nM
COc1cc(Nc2nccc(Nc3ccc4nc(C)ccc4c3)n2)ccc1OCCCN1CCCCC1 [Compound 456, 2-[3-methoxy-4-(3-piperidinopropoxy)phenylamino]-4-(2-methyl-6-quinolylamino) pyrimidine] | ≤ 500 nM
COc1cc(Nc2nccc(Nc3cc(Cl)c4ncccc4c3)n2)ccc1OCCCN1CCCCC1 [Compound 457, 4-(8-chloro-6-quinolylamino)-2-[3-methoxy-4-(3-piperidinopropoxy)phenylamino] pyrimidine] | ≤ 500 nM
Clc1cc(Nc2nccc(Nc3cnc4ccccc4c3)n2)ccc1N1CCOCC1 [Compound 459, 2-(3-chloro-4-morpholinophenylamino)-4-(3-quinolylamino)pyrimidine] | ≤ 500 nM
COc1cc(Nc2nccc(Nc3cnc4c(Cl)cccc4c3)n2)ccc1N1CCOCC1 [Compound 461, 4-(8-chloro-3-quinolylamino)-2-(3-methoxy-4-morpholinophenylamino) pyrimidine] | ≤ 500 nM
COc1cc(Nc2nccc(Nc3cnc4ccc(Cl)cc4c3)n2)ccc1N1CCOCC1 [Compound 462, 4-(6-chloro-3-quinolylamino)-2-(3-methoxy-4-morpholinophenylamino) pyrimidine] | ≤ 500 nM
COc1ccc2cc(Nc3ccnc(Nc4ccc(N5CCN(C)CC5)cc4OC)n3)cnc2c1 [Compound 463, 2-[2-methoxy-4-(4-methyl-1-piperazinyl)phenylamino]-4-(7-methoxy-3-quinolylamino)pyrimidine] | ≤ 500 nM
COc1cc(N2CCN(C)CC2)ccc1Nc1nccc(Nc2cnc3cc(Cl)ccc3c2)n1 [Compound 464, 4-(7-chloro-3-quinolylamino)-2-[2-methoxy-4-(4-methyl-1-piperazinyl)phenylamino] pyrimidine] | ≤ 500 nM
CC(O)C(=O)N1CCN(c2ccc(Nc3nccc(Nc4cnc5ccccc5c4)n3)cc2)CC1 (centres unmarked) [Compound 465, 2-hydroxy-1-(4-{p-[4-(3-quinolylamino)-2-pyrimidinylamino]phenyl}-1-piperazinyl)-1-propanone] | ≤ 500 nM

The remaining lines, values ahead:

IC50 | Compound
≤ 500 nM | COc1cc(Nc2nccc(Nc3cnc4c(Cl)cccc4c3)n2)ccc1OCCCN1CCOCC1 [Compound 413, 4-(8-chloro-3-quinolylamino)-2-[3-methoxy-4-(3-morpholinopropoxy)phenylamino]pyrimidine]
≤ 500 nM | Oc1ccc2ncc(Nc3ccnc(Nc4ccc(OCCCN5CCOCC5)cc4)n3)cc2c1 [Compound 414, 3-{2-[p-(3-morpholinopropoxy)phenylamino]-4-pyrimidinylamino}-6-quinolinol]
≤ 500 nM | Clc1cccc2cc(Nc3ccnc(Nc4ccc(OCCCN5CCOCC5)cc4)n3)cnc12 [Compound 416, 4-(8-chloro-3-quinolylamino)-2-[p-(3-morpholinopropoxy)phenylamino]pyrimidine]
≤ 500 nM | c1ccc2ncc(Nc3ccnc(Nc4ccc(OCCCN5CCCCC5)c(OCC5CCOCC5)c4)n3)cc2c1 [Compound 418]
≤ 500 nM | COc1cc(Nc2nccc(Nc3cnc4ccc(C(F)(F)F)cc4c3)n2)ccc1OCCCN1CCOCC1 [Compound 419, 2-[3-methoxy-4-(3-morpholinopropoxy)phenylamino]-4-[6-(trifluoromethyl)-3-quinolylamino]pyrimidine]
≤ 500 nM | COc1cc(Nc2nccc(Nc3cnc4ccc(Br)cc4c3)n2)ccc1OCCCN1CCCCC1 [Compound 421, 4-(6-bromo-3-quinolylamino)-2-[3-methoxy-4-(3-piperidinopropoxy)phenylamino]pyrimidine]
≤ 500 nM | COc1cc(Nc2nccc(Nc3cnc4cccc(Cl)c4c3)n2)ccc1OCCCN1CCCCC1 [Compound 422, 4-(5-chloro-3-quinolylamino)-2-[3-methoxy-4-(3-piperidinopropoxy)phenylamino]pyrimidine]
≤ 500 nM | COc1cc(Nc2nccc(Nc3cnc4cccc(F)c4c3)n2)ccc1OCCCN1CCCCC1 [Compound 423, 4-(5-fluoro-3-quinolylamino)-2-[3-methoxy-4-(3-piperidinopropoxy)phenylamino]pyrimidine]
≤ 500 nM | c1ccc2ncc(Nc3ccnc(Nc4ccc(OCCCN5CCCCC5)c(OCC5CC5)c4)n3)cc2c1 [Compound 425, 2-[3-(cyclopropylmethoxy)-4-(3-piperidinopropoxy)phenylamino]-4-(3-quinolylamino)pyrimidine]
≤ 500 nM | COc1ccc2cc(Nc3ccnc(Nc4ccc(OCCCN5CCCCC5)c(OC)c4)n3)cnc2c1 [Compound 426, 2-[3-methoxy-4-(3-piperidinopropoxy)phenylamino]-4-(7-methoxy-3-quinolylamino)pyrimidine]
≤ 500 nM | COc1cc(Nc2nccc(Nc3cnc4ccc(F)cc4c3)n2)ccc1OCCCN1CCCCC1 [Compound 427, 4-(6-fluoro-3-quinolylamino)-2-[3-methoxy-4-(3-piperidinopropoxy)phenylamino]pyrimidine]
≤ 500 nM | COc1cc(Nc2nccc(Nc3cnc4ccc(C)cc4c3)n2)ccc1OCCCN1CCCCC1 [Compound 429, 2-[3-methoxy-4-(3-piperidinopropoxy)phenylamino]-4-(6-methyl-3-quinolylamino)pyrimidine]
≤ 500 nM | COc1cc(Nc2nccc(Nc3cnc4c(Cl)cccc4c3)n2)ccc1OCCCN1CCCCC1 [Compound 430, 4-(8-chloro-3-quinolylamino)-2-[3-methoxy-4-(3-piperidinopropoxy)phenylamino]pyrimidine]
≤ 500 nM | COc1cc(Nc2ncc(F)c(Nc3cnc4ccccc4c3)n2)ccc1OCCCN1CCCCC1 [Compound 431, 5-fluoro-2-[3-methoxy-4-(3-piperidinopropoxy)phenylamino]-4-(3-quinolylamino)pyrimidine]
≤ 500 nM | Fc1cnc(Nc2ccc(OCCCN3CCCCC3)cc2)nc1Nc1cnc2ccccc2c1 [Compound 432, 5-fluoro-2-[p-(3-piperidinopropoxy)phenylamino]-4-(3-quinolylamino)pyrimidine]
≤ 500 nM | COc1cc(Nc2nccc(Nc3ccc4scnc4c3)n2)ccc1OCCCN1CCCCC1 [Compound 443, 4-(1,3-benzothiazol-5-ylamino)-2-[3-methoxy-4-(3-piperidinopropoxy)phenylamino] pyrimidine]
≤ 500 nM | COc1ccc2cc(Nc3ccnc(Nc4ccc(OCCCN5CCCCC5)c(OC)c4)n3)ccc2c1 [Compound 444, 4-(6-methoxy-2-naphthylamino)-2-[3-methoxy-4-(3-piperidinopropoxy)phenylamino] pyrimidine]
